Series [1] has as its target T1, Indoleamine 2,3-dioxygenase 1 (Homo sapiens, UniProt P14902). The series is described as follows: Inhibition of IDO1 in IFNgamma-stimulated human HeLa cells preincubated for 2 hrs followed by recombinant human IFNgamma stimulation and measured after 18 hrs by fluorescence based microplate reader assay.
The target of series [2] is Indoleamine 2,3-dioxygenase 1 (Mus musculus, UniProt P28776). Briefly: Inhibition of IDO1 in IFNgamma-stimulated mouse M109 cells preincubated for 2 hrs followed by recombinant murine IFNgamma stimulation and measured after 18 hrs by fluorescence based microplate reader assay. The series is classed as cell-based.
Series [3] is described as follows: Metabolic stability in human liver microsomes assessed as parent compound remaining at 0.5 uM after 10 mins incubation by LC-MS/MS analysis relative to control. Conditions: read-out: Activity. Format: ADME, Microsome. A general note: Microsomes from liver hold many membrane-bound enzymes, among them those of drug oxidation.
Series [4] in a line: Metabolic stability in mouse liver microsomes assessed as parent compound remaining at 0.5 uM after 10 mins incubation by LC-MS/MS analysis relative to control. The series is classed as ADME, Microsome. Conditions: read-out: Activity.
The nature of series [5]: Metabolic stability in rat liver microsomes assessed as parent compound remaining at 0.5 uM after 10 mins incubation by LC-MS/MS analysis relative to control. The series is classed as ADME, Microsome. Conditions: read-out: Activity.
Series [6] has as its target T1, Indoleamine 2,3-dioxygenase 1. The series is described as follows: Inhibition of IDO1 in IFNgamma/LPS-stimulated human whole blood preincubated for 4 hrs followed by IFNgamma/LPS stimulation and incubated for 18 hrs by Rapid-fire mass spectrometry analysis. Format: tissue-based.
A short description of series [7]: Protein binding in human assessed as free fraction relative to control. The series is classed as ADME.
A short description of series [8]: Protein binding in mouse assessed as free fraction relative to control. Format: ADME.
Series [9] can be described thus: AUC (0 to 24 hrs) in human SK-OV-3 cells xenografted in nu/nu mouse xenograft model measured in tumor at 60 mg/kg, po QD. Format: ADME, organism-based. Details: time < 24 hr, route oral, dose 60 mg/kg. In general terms: Xenograft models place foreign cells or tissue in a host animal.
Series [10] addresses Indoleamine 2,3-dioxygenase 1 (Mus musculus) (UniProt P28776). Briefly: In vivo inhibition of IDO1 in mouse xenografted with human SK-OV-3 cells assessed as reduction in tumor kynurenine AUEC at 60 mg/kg, po QD for 5 days measured up to 24 hrs after dosing relative to control. Format: functional, organism-based. Details: scale not given: the % may be the effect or the level left. The settings on record: time 5.0 day.

The record followed here is ChEMBL document CHEMBL4823289, “Conformational-Analysis-Guided Discovery of 2,3-Disubstituted Pyridine IDO1 Inhibitors” (ACS Med Chem Lett, 2021).

T1 sequence (P14902 whole entry): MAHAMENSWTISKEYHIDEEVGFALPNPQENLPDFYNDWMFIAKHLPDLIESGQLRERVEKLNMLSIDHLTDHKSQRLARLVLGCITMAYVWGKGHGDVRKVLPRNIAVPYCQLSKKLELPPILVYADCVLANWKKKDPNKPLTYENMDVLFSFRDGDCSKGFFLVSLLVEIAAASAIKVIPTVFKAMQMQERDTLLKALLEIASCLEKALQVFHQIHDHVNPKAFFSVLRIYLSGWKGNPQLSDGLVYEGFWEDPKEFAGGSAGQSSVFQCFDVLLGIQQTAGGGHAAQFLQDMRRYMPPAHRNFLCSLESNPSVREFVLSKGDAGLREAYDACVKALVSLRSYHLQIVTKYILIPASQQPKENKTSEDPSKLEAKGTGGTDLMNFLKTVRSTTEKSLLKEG
Chain of Indoleamine 2,3-dioxygenase 1 (Mus musculus, UniProt P28776) (P28776 whole entry): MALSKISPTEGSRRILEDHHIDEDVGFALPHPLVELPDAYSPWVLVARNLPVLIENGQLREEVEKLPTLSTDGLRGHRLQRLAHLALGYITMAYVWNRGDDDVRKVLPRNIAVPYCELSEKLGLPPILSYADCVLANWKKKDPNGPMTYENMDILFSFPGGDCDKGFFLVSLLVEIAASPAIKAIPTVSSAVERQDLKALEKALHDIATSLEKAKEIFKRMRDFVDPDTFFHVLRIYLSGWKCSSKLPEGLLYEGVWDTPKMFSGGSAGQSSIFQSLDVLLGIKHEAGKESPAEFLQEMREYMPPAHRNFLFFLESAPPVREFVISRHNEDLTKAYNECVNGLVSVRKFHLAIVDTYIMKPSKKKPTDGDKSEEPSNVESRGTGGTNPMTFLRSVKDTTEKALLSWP
Chain of Indoleamine 2,3-dioxygenase 1 (Mus musculus) (P28776 whole entry, looked up): as the sequence (P28776 whole entry) above

Broadly, the IC50 is the point on the concentration scale where inhibition reaches its midpoint. Take `CC[C@@H](NC(=O)c1ccc(Cl)cc1)[C@H]1CC[C@H](c2cccc(=O)n2C)CC1`: the IC50 turned out to be 26 nM in series [1] and 97 nM in [2]. The remaining at 10 min, 0.5 µM in [3] turned out to be 88%; in series [4], 65%.
As for `CC[C@@H](NC(=O)c1ccc(Cl)cc1)[C@H]1CC[C@@H](c2ccnc(OC)c2F)CC1`, the IC50 in series [1] came out at 3 nM; in [2], 22 nM; in [6] it was 11 nM. The remaining at 10 min, 0.5 µM in series [3] turned out to be 68%; in [4] it was 15%; in series [5], 21%.
Turning to `Cc1nccc([C@H]2CC[C@@H]([C@@H](C)NC(=O)c3ccc(Cl)cc3)CC2)c1C`, the IC50 in [1] was 4 nM; in [2] it was 6 nM. The remaining at 10 min, 0.5 µM in [3] was 30%; in series [4] it was 3%.
The corresponding values for `CC[C@@H](NC(=O)c1ccc(Cl)cc1)[C@H]1CC[C@H](c2cccc(C(F)(F)F)n2)CC1` are 40 nM, 40 nM, 89% and 56%.
With `CC[C@@H](NC(=O)c1ccc(Cl)cc1)[C@H]1CC[C@@H](c2ccnc(OC)c2C(F)F)CC1`, the figures for the IC50 in series [1], in series [2] and in series [6] were 2 nM, 6 nM and 4.4 nM, respectively. Besides, the remaining at 10 min, 0.5 µM in [3] came out at 85%; in series [4], 30%; in [5], 57%.
Turning to `COC[C@@H](NC(=O)c1ccc(Cl)cc1)[C@H]1CC[C@@H](c2ccnc(OC)c2C(F)F)CC1`, the figures for the IC50 in [1], in series [2] and in series [6] were 2 nM, 11 nM and 4.1 nM, respectively. In addition, the remaining at 10 min, 0.5 µM in series [3] was 68%; in series [4], 15%; in [5] it was 35%.
On to `CC[C@@H](NC(=O)c1ccc(Cl)cc1)[C@H]1CC[C@@H](c2ccnc(OC)c2C)CC1`, for which the IC50 in [1] is 2 nM; in series [2], 7 nM; in series [6] it was 2.8 nM. Further, the remaining at 10 min, 0.5 µM in series [3] was found to be 71%; in series [4] it was 15%; in series [5], 34%.
Turning to `CC[C@@H](NC(=O)c1ccc(Cl)cc1)[C@H]1CC[C@@H](c2cccc3c2OC(F)(F)O3)CC1`, the results for the IC50 in series [1] and in [2] were 43 nM and 196 nM, respectively. Besides, the remaining at 10 min, 0.5 µM in [3] and in [4] was 0% each time.
Consider `Cc1cc([C@H]2CC[C@@H]([C@@H](C)NC(=O)c3ccc(Cl)cc3)CC2)ccn1`, for which the IC50 in series [1] is 12 nM; in [2] it was 16 nM. Besides, the remaining at 10 min, 0.5 µM in series [3] and in series [4] was 1% each time.
Turning to `C[C@@H](NC(=O)c1ccc(Cl)cc1)[C@H]1CC[C@@H](c2ccnc3ccc(F)cc32)CC1`, the Activity in series [7] is given as less than 0.3%; in [8] it was less than 0.2%.
As for `CC[C@@H](NC(=O)c1ccc(Cl)cc1)[C@H]1CC[C@@H](c2cccnc2OC)CC1`, the IC50 in series [1] is 475 nM; in series [2], more than 1000 nM. Besides, the remaining at 10 min, 0.5 µM in series [3] came to 3%; in series [4], 1%.
In the case of `CC[C@@H](NC(=O)c1ccc(Cl)cc1)[C@H]1CC[C@H](c2cncc(OC)c2)CC1`, the IC50 is 19 nM in series [1] and 31 nM in series [2]. The remaining at 10 min, 0.5 µM worked out at 80% in series [3] and 28% in [4].
Regarding `CC[C@@H](NC(=O)c1ccc(Cl)cc1)[C@H]1CC[C@H](c2cccc(C)n2)CC1`, the IC50 in series [1] is 48 nM; in series [2] it was 121 nM. The remaining at 10 min, 0.5 µM came out at 56% in series [3] and 8% in series [4].
The corresponding values for `CC[C@@H](NC(=O)c1ccc(Cl)cc1)[C@H]1CC[C@H](c2nccc(OC)n2)CC1` are 80 nM, 193 nM, 20% and 42%.
Turning to `Cc1c(F)nccc1[C@H]1CC[C@@H]([C@@H](C)NC(=O)c2ccc(Cl)cc2)CC1`, the IC50 in [1] worked out at 5 nM; in series [2], 3 nM; in series [6] it was 47 nM. The remaining at 10 min, 0.5 µM came to 0% in series [3], 1% in series [4] and 1% in [5].
As a reminder, the AUC is the area under the concentration-time curve, a measure of exposure. As to `C[C@@H](C(=O)Nc1ccc(Cl)cc1)[C@H]1CC[C@@H](c2ccnc3ccc(F)cc32)CC1`, the AUC at 24 h in series [9] was determined as 18 µM·h. Also, the Activity in series [10] was 65%.
In the case of `CC[C@@H](NC(=O)c1ccc(Cl)cc1)[C@H]1CC[C@H](c2ccc(OC(F)F)cc2)CC1`, the figures for the IC50 in series [1] and in series [2] were 14 nM and 75 nM, respectively. In addition, the remaining at 10 min, 0.5 µM worked out at 94% in [3] and 90% in series [4].
Take `Cc1cnccc1[C@H]1CC[C@@H]([C@@H](C)NC(=O)c2ccc(Cl)cc2)CC1`: the results for the IC50 in [1] and in series [2] were 7 nM and 3 nM, respectively. Further, the remaining at 10 min, 0.5 µM was determined as 16% in [3] and 15% in series [4].
